Measurements: ChEMBL document CHEMBL3272162, “Quinazolines and 1,4-benzodiazepines. 81. s-Triazolo[4,3-a][1,4]benzodiazepines by oxidative cyclization of hydrazones” (1977)

What was measured:
Format in all cases: functional
Mus musculus [1] = assay: CNS activity in po dosed mouse by inclined screen test
Mus musculus [2] = assay: CNS activity in po dosed mouse assessed as antagonism against pentylenetetrazole-induced response
Mus musculus [3] = assay: CNS activity in po dosed mouse assessed as antifighting activity by foot shock test

Compound	ED50 (Mus musculus [1]) [mg/kg]	ED50 (Mus musculus [2]) [mg/kg]	ED50 (Mus musculus [3]) [mg/kg]
COC(=O)c1nnc2n1-c1ccc(Cl)cc1C(c1ccccc1)=NC2	40	0.9	5
[O-][N+]1=C(c2ccccc2)c2cc(Cl)ccc2-n2c(nnc2C(O)CO)C1 (configuration not stated)	> 400	620	> 100
OCC(O)c1nnc2n1-c1ccc(Cl)cc1C(c1ccccc1)=NC2 (configuration not stated)	100	3.8	20
OCC(O)c1nnc2n1-c1ccc(Cl)cc1C(c1ccccc1F)=NC2 (configuration not stated)	200	1.5	5
C=Cc1nnc2n1-c1ccc(Cl)cc1C(c1ccccc1Cl)=NC2	150	4.2	6.25
C=Cc1nnc2n1-c1ccc(Cl)cc1C(c1ccccc1F)=NC2	150	1.3	2.5
CCOC(=O)NN(/C=C/c1nnc2n1-c1ccc(Cl)cc1C(c1ccccc1Cl)=NC2)C(=O)OCC	> 400	> 800	> 100
NNC(=O)c1nnc2n1-c1ccc(Cl)cc1C(c1ccccc1)=NC2	500	2.8	50
CN(C)CCNC(=O)c1nnc2n1-c1ccc(Cl)cc1C(c1ccccc1)=NC2	300	50	100
Cc1nnc2n1-c1ccc(Cl)cc1C(c1ccccc1)=[N+]([O-])C2	> 400	3.35	100
Cc1nnc2n1-c1ccc(Cl)cc1C(c1ccccc1)=NC2 [ALPRAZOLAM]	2	0.3	2.5
CNC1=Nc2ccc(Cl)cc2C(c2ccccc2)=[N+]([O-])C1 [CHLORDIAZEPOXIDE]	100	8	40
CN1C(=O)CN=C(c2ccccc2)c2cc(Cl)ccc21 [DIAZEPAM]	25	1.4	10
Clc1ccc2c(c1)C(c1ccccc1)=NCc1nncn1-2 [ESTAZOLAM]	> 400	1.1	0.5
